Test results as given in US20100160321A1, “IMIDAZOLINONE AND HYDANTOINE DERIVATIVES AS NOVEL INHIBITORS OF HISTONE DEACETYLASE” (priority 2005, published 2010).

Columns and labels:
[1] = system: human A2780 ovarian carcinoma cells; assay: Antiproliferative activity on A2780 cells (MTT); format: cell-based; details: 96 h, four days of incubation, example C.2, read-out: Cellular activity pIC50 (converted)
Experimental: All compounds tested were dissolved in DMSO and further dilutions were made in culture medium. Final DMSO concentrations never exceeded 0.1% (v/v) in cell proliferation assays. Controls contained A2780 cells and DMSO without compound and blanks contained DMSO but no cells. MTT was dissolved at 5 mg/ml in PBS.
Cells were routinely kept as monolayer cultures at 37° C. in a humidified 5% CO2 atmosphere. Cells were passaged once a week using a trypsin/EDTA solution at a split ratio of 1:40. All media and supplements were obtained from Life Technologies. Cells were free of mycoplasma contamination as determined using the Gen-Probe Mycoplasma Tissue Culture kit (supplier: BioMerieux).
Cells were seeded in NUNC™ 96-well culture plates (Supplier: Life Technologies) and allowed to adhere to the plastic overnight. Densities used for plating were 1500 cells per well in a total volume of 200 μl medium. After cell adhesion to the plates, medium was changed and drugs and/or solvents were added to a final volume of 200 μl. Following four days of incubation, medium was replaced by 200 μl fresh medium and cell density and viability was assessed using an MTT-based assay. To each well, 25 μl MTT solution was added and the cells were further incubated for 2 hours at 37° C. The medium was then carefully aspirated and the blue MTT-formazan product was solubilized by addition of 25 μl glycine buffer followed by 100 μl of DMSO. […] Within an experiment, the results for each experimental condition are the mean of 3 replicate wells. […] For each experiment, controls (containing no drug) and a blank incubation (containing no cells or drugs) were run in parallel. The blank value was subtracted from all control and sample values. For each sample, the mean value for cell growth (in absorbance units) was expressed as a percentage of the mean value for cell growth of the control. […] Herein the effects of test compounds are expressed as pIC50 (the negative log value of the IC50-value)(see Table F-3).

[2] = biological target: histone deacetylase (HeLa nuclear extracts); assay: In vitro assay for inhibition of histone deacetylase (HDAC Fluorescent Activity Assay, Fluor de Lys); format: biochemical; details: HeLa nuclear extracts 60 μg/ml, 75 μM Fluor de Lys substrate, example C.1
Excerpt: The in vitro assay for inhibition of histone deacetylase (see example C.1) measures the inhibition of HDAC enzymatic activity obtained with the compounds of formula (I).
The HDAC Fluorescent Activity Assay/Drug Discovery Kit of Biomol (cat.No: AK-500-0001) was used. The HDAC Fluorescent Activity Assay is based on the Fluor de Lys (Fluorogenic Histone deAcetylase Lysyl) substrate and developer combination. The Fluor de Lys substrate, comprises an acetylated lysine side chain. Deacetylation of the substrate sensitizes the substrate so that, in the second step, treatment with the Fluor de Lys developer produces a fluorophore.
HeLa nuclear extracts (supplier: Biomol) were incubated at 60 μg/ml with 75 μM of substrate. The Fluor de Lys substrate was added in a buffer containing 25 mM Tris, 137 mM NaCl, 2.7 mM KCl and 1 mM MgCl2.6H2O at pH 7.4. After 30 min, 1 volume of the developer was added. The fluorophore was excited with 355 nm light and the emitted light (450 nm) was be detected on a fluorometric plate reader.
For each experiment, controls (containing HeLa nuclear extract and buffer), a blank incubation (containing buffer but no HeLa nuclear extract) and samples (containing compound dissolved in DMSO and further diluted in buffer and HeLa nuclear extract) were run in parallel. In first instance, compounds were tested at a concentration of 10^−5M. […] All sample were tested 4 times. In each test the blank value was subtracted from both the control and the sample values. The control sample represented 100% of substrate deactylation. For each sample the fluorescence was expressed as a percentage of the mean value of the controls. […] Herein the effects of test compounds are expressed as pIC50 (the negative log value of the IC50-value) (see Table F-3).

| Structure (SMILES) | IC50 [1] [nM] | Enzyme activity pIC50 [2] | melting point [°C] |
| --- | --- | --- | --- |
| O=C(NO)c1cnc(N2CCC(CN3CCN(c4cccc5ccccc45)C3=O)CC2)nc1 [Compound 1] | 1000 | 7.1 |  |
| O=C(NO)c1cnc(N2CCC(Cn3ccn(-c4ccc(Oc5ccccc5)cc4)c3=O)CC2)nc1 [Compound 2] | 126 | 7.5 |  |
| O=C(NO)c1cnc(N2CCC(Cn3ccn(-c4ccc(-c5ccccc5)cc4)c3=O)CC2)nc1 [Compound 3] | 79.4 | 7.8 |  |
| O=C(NO)c1cnc(N2CCC(Cn3ccn(-c4ccc(F)cc4)c3=O)CC2)nc1 [Compound 4] | 631 | 7.6 |  |
| N#Cc1ccc(N2C(=O)C(c3ccccc3)N(CC3CCN(c4ncc(C(=O)NO)cn4)CC3)C2=O)cc1 (centres unmarked) [Compound 5] | 631 | 7.1 | 187 |
| CC1C(=O)N(c2ccc(-c3ccccc3)cc2)C(=O)N1CC1CCN(c2ncc(C(=O)NO)cn2)CC1 (centres unmarked) [Compound 6] | 501 | 7.2 | 169 |
| O=C(NO)c1cnc(N2CCC(CN3CCN(c4ccc(Oc5ccccc5)cc4)C3=O)CC2)nc1 [Compound 10] | 2510 | 7.2 |  |
| O=C(NO)c1cnc(N2CCC(CN3CCN(c4ccc(-c5ccccc5)cc4)C3=O)CC2)cn1 [Compound 11] | 631 | 7.3 |  |
| O=C(NO)c1cnc(N2CCOC(Cn3ccn(-c4ccccc4)c3=O)C2)nc1 (centres unmarked) [Compound 12] | 631 | 7.5 |  |
| COc1ccc(-n2ccn(CC3CN(c4ncc(C(=O)NO)cn4)CCO3)c2=O)cc1OC (centres unmarked) [Compound 13] | 794 | 7.3 |  |
| Cc1cccc(-n2ccn(CC3CN(c4ncc(C(=O)NO)cn4)CCO3)c2=O)c1 (centres unmarked) [Compound 14] | 6310 | 6.8 |  |
| CC1C(=O)N(c2ccc(C#N)cc2)C(=O)N1CC1CCN(c2ncc(C(=O)NO)cn2)CC1 (centres unmarked) [Compound 36] | 1580 | 7.0 | 135 |

More lines, main results first:

| IC50 [1] [nM] | Enzyme activity pIC50 [2] | Structure (SMILES) | melting point [°C] |
| --- | --- | --- | --- |
| 1260 | 7.3 | O=C(NO)c1cnc(N2CCOC(Cn3ccn(-c4cccc(C(F)(F)F)c4)c3=O)C2)nc1 (centres unmarked) [Compound 15] |  |
| 1260 | 7.2 | COc1cc(-n2ccn(CC3CN(c4ncc(C(=O)NO)cn4)CCO3)c2=O)cc(OC)c1OC (centres unmarked) [Compound 16] |  |
| 1260 | 7.2 | COc1ccc(-n2ccn(CC3CN(c4ncc(C(=O)NO)cn4)CCO3)c2=O)cc1 (centres unmarked) [Compound 18] |  |
| 501 | 7.3 | O=C(NO)c1cnc(N2CCOC(Cn3ccn(-c4ccc(F)cc4)c3=O)C2)nc1 (centres unmarked) [Compound 20] |  |
| 501 | 7.4 | O=C(NO)c1cnc(N2CCOC(Cn3ccn(-c4cccc(F)c4)c3=O)C2)nc1 (centres unmarked) [Compound 21] |  |
| 5010 | 7.2 | Cc1ccc(-n2ccn(CC3CN(c4ncc(C(=O)NO)cn4)CCO3)c2=O)cc1 (centres unmarked) [Compound 22] |  |
| 1260 | 7.2 | O=C(NO)c1cnc(N2CCC(Cn3ccn(-c4cccc(C(F)(F)F)c4)c3=O)CC2)nc1 [Compound 23] |  |
| 631 | 7.4 | O=C(NO)c1cnc(N2CCC(Cn3ccn(-c4ccc5c(c4)OCCOCCOCCOCCO5)c3=O)CC2)nc1 [Compound 24] |  |
| 631 | 7.4 | COc1cc(-n2ccn(CC3CCN(c4ncc(C(=O)NO)cn4)CC3)c2=O)cc(OC)c1OC [Compound 25] |  |
| 501 | 7.4 | COc1cc(OC)cc(-n2ccn(CC3CCN(c4ncc(C(=O)NO)cn4)CC3)c2=O)c1 [Compound 26] |  |
| 631 | 7.5 | COc1ccc(-n2ccn(CC3CCN(c4ncc(C(=O)NO)cn4)CC3)c2=O)cc1OC [Compound 27] |  |
| 631 | 7.6 | COc1ccc(-n2ccn(CC3CCN(c4ncc(C(=O)NO)cn4)CC3)c2=O)cc1 [Compound 28] |  |
| 631 | 7.7 | COc1cccc(-n2ccn(CC3CCN(c4ncc(C(=O)NO)cn4)CC3)c2=O)c1 [Compound 29] |  |
| 631 | 7.5 | O=C(NO)c1cnc(N2CCC(Cn3ccn(-c4cccc(F)c4)c3=O)CC2)nc1 [Compound 30] |  |
| 631 | 7.7 | Cc1ccc(-n2ccn(CC3CCN(c4ncc(C(=O)NO)cn4)CC3)c2=O)cc1 [Compound 31] |  |
| 1000 | 6.6 | O=C(NO)c1cnc(N2CCC(Cn3ccn(-c4ccccc4)c3=O)CC2)nc1 [Compound 32] |  |
| 501 | 7.9 | Cc1[nH]c2ccccc2c1CCn1ccn(CC2CCN(c3ncc(C(=O)NO)cn3)CC2)c1=O [Compound 35] | 246 |
